We go through one compound from patent US8927732B2, “Biotin stannane for HPLC-free radioiodination” (General Electric Company, priority 2012, dated 2015).

Molecules are shown by their SMILES.

In the experiment the target is streptavidin resin column (Streptomyces avidinii, UniProt P22629). Briefly: Purification with streptavidin resin column in the presence of additives (solubility enhancing agent study). The conditions noted are these: eluent PBS. On the procedure:
To an Eppendorf vial were added 56.6 μg precursor 4 (56.6 μL, 1.0 mg/mL, EtOH), 5 μL AcOH, Na^125I (18.5 MBq or 500 μCi, pH 8˜11 in aqueous NaOH) and iodogen (50 μL, 0.2 mg/mL in EtOH), subsequently. The reaction mixture was allowed to sit at room temperature for 20 minutes, with occasional swirling. After quenching with 100 μL of Na2S2O3 (0.1 M aq.), the mixture was diluted with 100 μL of EtOH then added to the binding buffer tested as described below.
A streptavidin resin column was packed using 1.6 mL of resin slurry (0.8 mL of actual resin) as described previously and washed with the appropriate binding buffer (4.0 mL, 5 cv). An 80 μL aliquot of the above radiolabeling mixture was diluted with the appropriate binding buffer (920 μL) and mixed for 10 minutes before loading onto streptavidin column. After incubation for 20 minutes, radiolabeled product was eluted off the column with binding buffer (three 0.5 mL fractions collected). All fractions (including a forerun fraction collected while loading the reaction mixture onto column) were subjected to HPLC analysis before being combined.

streptavidin resin column, sequence (P22629 25-183): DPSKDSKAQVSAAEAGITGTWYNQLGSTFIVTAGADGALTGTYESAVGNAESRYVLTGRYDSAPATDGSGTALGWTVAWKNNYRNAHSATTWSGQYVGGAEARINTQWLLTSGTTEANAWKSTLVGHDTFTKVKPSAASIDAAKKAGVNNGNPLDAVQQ

Regarding `O=C(OCc1ccccc1)c1cccc([125I])c1` [Compound 125I-3IBABn], the “Activity left on column” value (10% HP-β-CD w/v) is recorded as 16%, the “Activity left on column” value (20% HP-β-CD w/v) is on record as 13% and the “Activity left on column” value (40% HP-β-CD w/v) is recorded as 7%.
